Results reported in patent US20060120962A1, “Cardiac safe, rapid medication delivery” (priority 2004, published 2006).
Values joined by “and” are separate entries in the source; they are usually repeats but may differ in a detail not shown here. Equal entries are not always repeated. Where two headings read alike, the source gives them in different places.

What was measured:
in vivo = settings: female, mongrel, dog, 7 mg; for AUC(0-t): AUC0-10 min; for bioavailability: F, based on venous AUCinf
[1] = Clinical observations and body weights after prochlorperazine administration in dogs; type: in vivo; settings: dog
[2] = humans; reported; cited from earlier work
[3] = Pharmacokinetics of aerosolized alprazolam in dog (left ventricular and venous plasma) vs IV bolus; type: in vivo; settings: for AUC(0-t) / bioavailability / Cmax / Tmax / AUC / half-life: female, mongrel, 0.7 mg; for AUC(0-t): venous plasma; for Tmax: median
Experimental: (§1) This study consisted of five young adult, female, mongrel dogs. Four animals per session were treated with the test article, alprazolam, in two separate surgical/dosing sessions. In Session 1 the test article was administered intravenously (IV) as a 5-second bolus. […] The animals were dosed at a level of 0.7 mg of alprazolam in both dosing sessions.
Four animals per session were treated with the test article, alprazolam, in two separate surgical/dosing sessions. The animals were dosed at a level of 0.7 mg of alprazolam in both dosing sessions.
Anesthesia was performed substantially as described in Example 1.
Whole blood samples were centrifuged. […] All plasma samples were stored until analyzed. […] Plasma samples were mixed with spiking solutions of alprazolam, α-hydroxyalprazolam, 4-hydroxyalprazolam and an internal standard (alprazolam-d5). […] Drug or metabolite concentrations were calculated by comparing (drug or metabolite)/internal standard ratios to standard curves prepared in dog plasma.
Individual plasma concentration-time data from four animals, two sampling sites, and two dose routes were analyzed by noncompartmental pharmacokinetic methods via WinNonlin using nominal time points. Areas were calculated using the linear trapezoidal rule.

[4] = Clinical observations and body weights after alprazolam administration in dogs; type: in vivo; settings: dog
Experimental: as §1

[5] = left ventricular plasma, inhaled or intranasal, dog left ventricular plasma, aerosol inhalation
[6] = left ventricular plasma, iv, dog left ventricular plasma, 2-min IV infusion
[7] = left ventricular plasma, iv, dog left ventricular plasma, IV bolus
[8] = venous plasma, iv, dog venous plasma, 2-min IV infusion
[9] = venous plasma, iv, dog venous plasma, IV bolus
[10] = dog left ventricular plasma, IV bolus
[11] = dog venous plasma, 7 mg, 2-min IV infusion
[12] = dog venous plasma, 7 mg, IV bolus
[13] = dog venous plasma, 7 mg, aerosol inhalation
[14] = inhaled or intranasal, dog left ventricular plasma, aerosol inhalation
[15] = inhaled or intranasal, dog venous plasma, aerosol inhalation

CN1CCN(CCCN2c3ccccc3Sc3ccc(Cl)cc32)CC1 [PCZ, prochlorperazine]
Tmax (in vivo; left ventricular and venous plasma, iv, dog left ventricular and venous plasma, 2-minute IV infusion): 1.25 to 3 min | AUC(0-t) (in vivo; [5]): 89.1 ± 13.7 ng·h/mL | Cmax (in vivo; [5]): 3260 ± 975 ng/mL | Tmax (in vivo; [5]): 0.33 min | AUC(0-t) (in vivo; [6]): 88.5 ± 25.7 ng·h/mL | AUC(0-t) (in vivo; [7]): 98.3 ± 15 ng·h/mL | Cmax (in vivo; [6]): 1360 ± 396 ng/mL | Cmax (in vivo; [7]): 3480 ± 767 ng/mL | Tmax (in vivo; [6]): 1.9 min | Tmax (in vivo; [7]): 0.5 min | Cmax (in vivo; venous plasma, inhaled or intranasal, dog venous plasma, thermal aerosol single deep inhalation, mean ± SD): 886 ± 268 ng/mL | half-life (in vivo; venous plasma, inhaled or intranasal, Half-Life, dog venous plasma, aerosol inhalation): 76.2 ± 17.4 min | Tmax (in vivo; venous plasma, inhaled or intranasal, dog venous plasma, aerosol inhalation): 1 min | bioavailability (in vivo; venous plasma, inhaled, aerosol bioavailability to IV bolus, 7 mg aerosol vs IV bolus): 82% | bioavailability (in vivo; venous plasma, inhaled, aerosol bioavailability to IV infusion, 7 mg aerosol vs 2-min IV infusion): 109% | clearance (in vivo; venous plasma, intravenous, inhaled, mean clearances, dog venous, span over the three groups): 18.9 to 24.8 mL/min/kg | half-life (in vivo; venous plasma, intravenous, inhaled, mean half-lives, dog venous, span over the three groups): 76.2 to 105 min | clearance (in vivo; venous plasma, iv, CL, dog venous plasma, 2-min IV infusion): 24.8 mL/min/kg | clearance (in vivo; venous plasma, iv, CL, dog venous plasma, IV bolus): 18.9 ± 3.6 mL/min/kg | Cmax (in vivo; venous plasma, iv, dog venous plasma, 2-min IV infusion, mean ± SD): 442 ± 270 ng/mL | Cmax (in vivo; venous plasma, iv, dog venous plasma, 5-second IV bolus, mean ± SD): 1300 ± 1260 ng/mL | half-life (in vivo; venous plasma, iv, Half-Life, dog venous plasma, 2-min IV infusion): 105 ± 9.6 min | half-life (in vivo; venous plasma, iv, Half-Life, dog venous plasma, IV bolus): 82.2 ± 6 min | Tmax (in vivo; [8]): 2.5 min | Tmax (in vivo; [9]): 1.1 min | Vd (in vivo; [8]): 3.8 L/kg | Vd (in vivo; [9]): 2.3 ± 0.6 L/kg | adverse effects by clinical observations ([1]; 7 mg IV infusion, aerosol, IV bolus sessions): no adverse effects | body weights between treatment sessions ([1]; all animals): maintained | Cmax (dog left ventricular plasma, 7 mg, 2-min IV infusion): 1365.3 ± 396.2 ng/mL | Cmax (dog left ventricular plasma, 7 mg, IV bolus): 3481.8 ± 787.2 ng/mL | Cmax (dog left ventricular plasma, 7 mg, aerosol inhalation): 3261.5 ± 974.8 ng/mL | Cmax (dog left ventricular plasma, 7 mg, aerosol inhalation, listed as prochlorperazine): 3261 ng/mL | time of maximum left ventricular concentration [10]: 30 s | time of maximum left ventricular concentration (dog left ventricular plasma, aerosol inhalation): 20 s | AUC0-10 min [11]: 32.2 ± 21.1 ng·h/mL | AUCinf [11]: 229.9 ± 35.7 ng·h/mL | Tlast [11]: 8.0 ± 0.0 h | Cmax (dog venous plasma, 7 mg, 2-min IV infusion, mean ± SD): 441.8 ± 269.9 ng/mL | AUC0-10 min [12]: 63.4 ± 15.7 ng·h/mL | AUCinf [12]: 305.1 ± 59.3 ng·h/mL | Tlast [12]: 8.0 ± 0.0 h | AUC0-10 min [13]: 56.5 ± 10.6 ng·h/mL | AUCinf [13]: 250.4 ± 58.2 ng·h/mL | Tlast [13]: 6.0 ± 2.3 h | Vd [13]: 2.6 ± 1.1 L/kg | Cmax (dog venous plasma, 7 mg, thermal aerosol single deep inhalation, mean ± SD): 886.5 ± 268.3 ng/mL | mean maximum concentration, left ventricular plasma relative to venous plasma (dog, 2-minute IV infusion): approximately 3 fold | venous plasma concentration at time points after 8 hr (undetectable levels) (dog, 2-minute IV infusion): < 2 ng/mL | peak concentration in left ventricular plasma relative to 2-minute IV infusion (dog, aerosol and IV bolus treatments): approximately 2.5 fold | F, aerosol bioavailability to IV infusion (dog, based on venous AUCinf, 7 mg aerosol vs 2-min IV infusion): 108.7±19% and 108.9 ± 19.2% | F, aerosol bioavailability to IV bolus (dog, based on venous AUCinf, 7 mg aerosol vs IV bolus): 82.1 ± 13.1% | (ventricular) spike index for inhalation (dog, left ventricular Cmax aerosol divided by Cmax 2-min IV infusion): 2.4 | oral bioavailability [2]: 12.5%

Cc1nnc2n1-c1ccc(Cl)cc1C(c1ccccc1)=NC2 [alprazolam]
last time concentrations measurable (last sampling time) ([3]; dog left ventricle plasma, all cases): 10 min | median time through which concentrations were measurable ([3]; dog venous plasma, IV dosing): 240 min | median time through which concentrations were measurable ([3]; dog venous plasma, inhalation dosing): 360 min | mean Cmax for left ventricle plasma relative to venous plasma ([3]; dog, both routes of administration): ~7 fold | mean Cmax after inhalation as percentage of values after intravenous dosing ([3]; dog, left ventricle and venous plasma): approximately 70% | bioavailability based upon mean AUC (n=4) by each route ([3]; dog, left ventricle sampling): 81.5% | bioavailability based upon mean AUC (n=4) by each route ([3]; dog, systemic plasma): 94.9% | AUC(0-t) ([3]; dog, inhaled or intranasal, dog venous plasma, aerosol inhalation, read-out: AUC0-240 (converted)): 38.3 ng·h/mL | AUC(0-t) ([3]; dog, inhaled or intranasal, dog venous plasma, aerosol inhalation, read-out: AUClast (converted)): 43.3 ng·h/mL | AUC(0-t) ([3]; dog, iv, dog venous plasma, IV bolus, read-out: AUC0-240 (converted)): 42.3 ng·h/mL | AUC(0-t) ([3]; dog, iv, dog venous plasma, IV bolus, read-out: AUClast (converted)): 45.3 ng·h/mL | bioavailability ([3]; inhaled or intranasal, dog, based on AUC for venous plasma, n=3, read-out: F, mean bioavailability for inhalation administration): 95.5% | Cmax [3, 14]: 676 ± 99.5 ng/mL | Tmax [3, 14]: 0.25 min | AUC [3, 15]: 49.7 ng·h/mL | Cmax ([3]; inhaled or intranasal, dog venous plasma, aerosol inhalation, mean ± SD, n=4): 102 ± 57.2 ng/mL | Tmax [3, 15]: 0.5 min | half-life ([3]; inhaled or intranasal, dog venous plasma, aerosol inhalation, read-out: Half-Life): 115 ± 12.9 min | half-life ([3]; intravenous, inhaled, dog venous plasma, both routes, read-out: mean terminal elimination half-life): ~110 min | bioavailability ([3]; left ventricular plasma, inhaled or intranasal, dog, based on AUC for left ventricle plasma, three animals, read-out: mean bioavailability for inhalation administration): 85% | half-life ([3]; left ventricular plasma, intravenous, inhaled, dog left ventricle plasma, both routes, read-out: mean terminal elimination half-life): ~4 min | Cmax [3, 10]: 967 ± 303 ng/mL | Tmax [3, 10]: 0.42 min | Cmax ([3]; dog venous plasma, 5-second IV bolus, mean ± SD, n=4): 147 ± 93.5 ng/mL | AUC ([3]; dog venous plasma, IV bolus): 52.3 ng·h/mL | Tmax ([3]; dog venous plasma, IV bolus): 0.75 min | half-life ([3]; dog venous plasma, IV bolus, read-out: Half-Life): 106 ± 22 min | body weight change between treatment sessions [4]: no remarkable change | adverse effects by clinical observations ([4]; 0.7 mg IV bolus and aerosol sessions): no adverse effects
